Source: PMC8805037, “Ready access to 7,8-dihydroindolo[2,3-d][1]benzazepine-6(5H)-one scaffold and analogues via early-stage Fischer ring-closure reaction” (Beilstein Journal of Organic Chemistry, 2022)

Target: proto-oncogene tyrosine-protein kinase Src (Homo sapiens, UniProt P12931)
Assay: IC50 reported as preliminary result; assay not described in the text shown
Type: biochemical

Sequence of proto-oncogene tyrosine-protein kinase Src (P12931 2-536): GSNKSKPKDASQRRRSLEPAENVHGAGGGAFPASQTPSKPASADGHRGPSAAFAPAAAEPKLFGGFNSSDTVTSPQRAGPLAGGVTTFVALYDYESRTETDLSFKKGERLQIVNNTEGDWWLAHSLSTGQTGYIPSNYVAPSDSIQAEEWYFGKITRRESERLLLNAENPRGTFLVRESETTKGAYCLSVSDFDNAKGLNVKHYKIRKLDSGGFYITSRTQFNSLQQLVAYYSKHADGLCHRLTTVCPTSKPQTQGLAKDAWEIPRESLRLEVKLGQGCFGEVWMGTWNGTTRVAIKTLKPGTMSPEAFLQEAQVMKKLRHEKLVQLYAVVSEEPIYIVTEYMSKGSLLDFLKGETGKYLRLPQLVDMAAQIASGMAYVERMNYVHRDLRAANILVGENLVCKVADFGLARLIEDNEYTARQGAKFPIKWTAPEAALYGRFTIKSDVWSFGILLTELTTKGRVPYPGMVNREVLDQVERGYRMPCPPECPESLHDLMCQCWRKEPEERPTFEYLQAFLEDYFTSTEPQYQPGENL

Work on `O=C1Cc2[nH]c3ccccc3c2-c2ccccc2N1` [C, 7,8-dihydroindolo[2,3-d][1]benzazepin-6(5H)-one] yielded an IC50 of 260 nM.
